Source: the COVID Moonshot data (paper PMC7615835)
“And” between values parts separate entries of the source, which are not always exact repeats. Equal entries are not always repeated.

Legend:
[1] = biological target: SARS-CoV-2 Main Protease (SARS-CoV-2) (UniProt P0DTD1)
[2] = in vivo, iv, 0.5 mg/kg

| Structure (SMILES) | CC50 (a549) [nM] | IC50 [1] | AUC(0-inf) ([2]; rat) | AUC(0-t) ([2]; rat) | C0 ([2]; rat) | MRT inf ([2]; rat) | MRT last ([2]; rat) | Vd ([2]; rat) | clearance ([2]; rat) | half-life ([2]; rat) | also measured |
| --- | --- | --- | --- | --- | --- | --- | --- | --- | --- | --- | --- |
| C=CC(=O)N(C(=O)C1CCOc2ccc(Cl)cc21)c1cncc2ccccc12 (configuration not stated) | > 10000 | – | – | – | – | – | – | – | – | – | – |
| CNS(=O)(=O)N1Cc2ccc(Cl)cc2C(C(=O)Nc2cncc3ccccc23)C1 (configuration not stated) | – | 149 nM | 185 ng·h/mL and 255 ng·h/mL and 157 ng·h/mL | 183 ng·h/mL and 254 ng·h/mL and 155 ng·h/mL | 507 ng/mL and 850 ng/mL and 519 ng/mL | 31.6 min and 38.9 min and 23.9 min | 36.1 min and 30.6 min and 22.1 min | 1.75 L/kg and 1.07 L/kg and 1.5 L/kg | 45.1 mL/min/kg and 33.3 mL/min/kg and 62.7 mL/min/kg | 41 min and 32.2 min and 20 min | – |
| C=CC(=O)N(C(=O)[C@H]1CCOc2ccc(Cl)cc21)c1cncc2ccccc12 (stereo in doubt) | > 9990 | – | – | – | – | – | – | – | – | – | CC50 (vero): > 9990 nM |
| O=C(Nc1cncc2ccccc12)C1CCN(Cc2ccn[nH]2)c2ccc(Cl)cc21 (configuration not stated) | > 9990 | 803 nM | – | – | – | – | – | – | – | – | – |
| CC(C)(C)c1ccc(N(C(=O)c2cocn2)C(C(=O)NC2COC2)c2cccnc2)cc1 (configuration not stated) | – | 4070 nM | – | – | – | – | – | – | – | – | CC50 (vero): > 10000 nM |
| Cc1nnc(CN2Cc3ccc(Cl)cc3C(C(=O)Nc3cncc4ccccc34)C2)[nH]1 (configuration not stated) | – | 750 nM | 143 ng·h/mL and 182 ng·h/mL | 142 ng·h/mL and 178 ng·h/mL | 621 ng/mL and 588 ng/mL | 28.7 min and 20.8 min | 19.7 min and 25.8 min | 1.21 L/kg and 1.32 L/kg | 58.3 mL/min/kg and 46.8 mL/min/kg | 18.7 min and 22.1 min | – |
| N#Cc1ccc2cncc(NC(=O)C3CCOc4ccc(Cl)cc43)c2c1 (configuration not stated) | > 10000 | – | – | – | – | – | – | – | – | – | – |
| O=C(Cc1cccc(Cl)c1)Nc1cnn2ccccc12 | – | 11300 nM | 209 ng·h/mL and 179 ng·h/mL | 201 ng·h/mL and 176 ng·h/mL | 652 ng/mL and 621 ng/mL | 31.1 min | 25.4 min and 27.5 min | 1.24 L/kg and 1.44 L/kg | 39.8 mL/min/kg and 46.6 mL/min/kg | 29.4 min and 33.7 min | – |
| Cc1cccc2cncc(NC(=O)Cc3cccc(Cl)c3)c12 | – | 331 nM | 206 ng·h/mL and 112 ng·h/mL | 203 ng·h/mL and 111 ng·h/mL | 934 ng/mL and 490 ng/mL | 21.8 min and 18.2 min | 16.2 min and 19.9 min | 0.737 L/kg and 1.83 L/kg | 40.4 mL/min/kg and 84.8 mL/min/kg | 24.9 min and 34.8 min | – |
| CN(C)C(=O)CC1(C(=O)Nc2cncc3ccccc23)CCOc2ccc(Cl)cc21 (configuration not stated) | > 9990 | 2920 nM | – | – | – | – | – | – | – | – | – |
| O=C(Nc1cnccc1C1CC1)C1CCNc2cc(Cl)c(Cl)cc21 (configuration not stated) | > 9990 | – | 144 ng·h/mL and 96.1 ng·h/mL | 142 ng·h/mL and 94.2 ng·h/mL | 341 ng/mL and 180 ng/mL | 46.2 min and 45.9 min | 40.6 min and 41 min | 2.65 L/kg and 4.01 L/kg | 57.7 mL/min/kg and 86.8 mL/min/kg | 49.4 min and 48.2 min | CC50 (mda-md-435): > 9990 nM |
| Cc1ccc(CC(=O)Nc2cncc3ccccc23)cc1Cl | > 9990 | 1090 nM | – | – | – | – | – | – | – | – | – |
| O=C(Cc1cccc(Cl)c1)Nc1cncc2cn[nH]c12 | – | 2100 nM | 216 ng·h/mL and 364 ng·h/mL | 216 ng·h/mL and 356 ng·h/mL | 986 ng/mL and 1030 ng/mL | 25.6 min and 15.7 min | 15.4 min and 23.3 min | 0.604 L/kg and 0.594 L/kg | 38.6 mL/min/kg and 25.6 mL/min/kg | 14.4 min and 19.9 min | – |
| Cn1ncc2cncc(NC(=O)Cc3cccc(Cl)c3)c21 | – | 1500 nM | 178 ng·h/mL and 250 ng·h/mL | 178 ng·h/mL and 248 ng·h/mL | 820 ng/mL and 1030 ng/mL | 19.3 min and 15.2 min | 14.9 min and 18.1 min | 0.709 L/kg and 0.64 L/kg | 46.7 mL/min/kg and 34.6 mL/min/kg | 14.9 min and 17.9 min | – |
| CS(=O)(=O)c1ccc2cncc(NC(=O)C3CNC(=O)c4ccc(Cl)cc43)c2c1 (configuration not stated) | – | 2740 nM | 177 ng·h/mL and 160 ng·h/mL | 175 ng·h/mL and 157 ng·h/mL | 636 ng/mL and 540 ng/mL | 25.6 min and 22 min | 20.7 min and 22.8 min | 1.08 L/kg and 1.38 L/kg | 49 mL/min/kg and 54.2 mL/min/kg | 19.3 min and 23.4 min | – |
| CS(=O)(=O)c1ccc2cncc(NC(=O)C3CCOc4cc(F)c(Cl)cc43)c2c1 (configuration not stated) | > 9990 | 1890 nM and 1270 nM | – | – | – | – | – | – | – | – | – |

| Structure (SMILES) | CC50 (a549) [nM] | IC50 [1] | AUC(0-inf) ([2]; rat) | AUC(0-t) ([2]; rat) | C0 ([2]; rat) | MRT inf ([2]; rat) | MRT last ([2]; rat) | Vd ([2]; rat) | clearance ([2]; rat) | half-life ([2]; rat) | also measured |
| --- | --- | --- | --- | --- | --- | --- | --- | --- | --- | --- | --- |
| CS(=O)(=O)N1Cc2ccc(Cl)cc2C(C(=O)Nc2cncc3cccc(F)c23)C1 (configuration not stated) | – | 951 nM | 110 ng·h/mL and 136 ng·h/mL | 107 ng·h/mL and 134 ng·h/mL | 332 ng/mL and 376 ng/mL | 25.8 min and 25.9 min | 22.9 min and 23.5 min | 1.57 L/kg and 1.26 L/kg | 60.6 mL/min/kg and 48.6 mL/min/kg | 23.9 min and 20.4 min | – |
| CCCc1cc(Cl)cc(CC(=O)Nc2cncc3ccccc23)c1 | > 9990 | 2650 nM | – | – | – | – | – | – | – | – | – |
| Cc1c(N)cncc1NC(=O)Cc1cccc(Cl)c1 | – | 4220 nM | 210 ng·h/mL and 187 ng·h/mL | 209 ng·h/mL and 185 ng·h/mL | 485 ng/mL and 446 ng/mL | 28.8 min and 30.5 min | 29.5 min and 27.3 min | 1.21 L/kg and 1.28 L/kg | 39.8 mL/min/kg and 44.6 mL/min/kg | 28.2 min and 25 min | – |
| O=C(Nc1cncc2ccccc12)C1CCOc2c(OCc3ccncc3)cc(Cl)cc21 (configuration not stated) | > 9990 | 3450 nM | – | – | – | – | – | – | – | – | – |
| O=C(Nc1cncc2ccccc12)C1CN(S(=O)(=O)CCO)Cc2ccc(Cl)cc21 (configuration not stated) | – | 232 nM | 241 ng·h/mL and 283 ng·h/mL | 236 ng·h/mL and 280 ng·h/mL | 441 ng/mL and 590 ng/mL | 56.2 min and 49.7 min | 44.2 min and 52.6 min | 1.72 L/kg and 1.66 L/kg | 34.6 mL/min/kg and 29.6 mL/min/kg | 47.1 min and 72.6 min | – |
| Cc1nc2n(n1)CC(C(=O)NC(C)(C(=O)Nc1cncc3ccccc13)c1ccc(Cl)c(Cl)c1)CC2 (configuration not stated) | > 9990 | 3440 nM and 6760 nM | – | – | – | – | – | – | – | – | – |
| CNC(=O)N1Cc2ccc(Cl)cc2C(C(=O)Nc2cncc3ccccc23)C1 (configuration not stated) | – | 272 nM | – | – | – | – | – | – | – | – | AUC(0-inf) ([2]; mouse): 97.6 ng·h/mL and 117 ng·h/mL; AUC(0-t) ([2]; mouse): 94.9 ng·h/mL and 115 ng·h/mL; C0 ([2]; mouse): 328 ng/mL and 570 ng/mL; MRT inf ([2]; mouse): 16.4 min and 13.4 min; MRT last ([2]; mouse): 14.7 min and 12.5 min; Vd ([2]; mouse): 1.32 L/kg and 0.896 L/kg; clearance ([2]; mouse): 80.4 mL/min/kg and 68.2 mL/min/kg; half-life ([2]; mouse): 11.5 min and 9.96 min |
| O=C(Cc1cccc(Cl)c1)Nc1c[nH]c(=O)c2ccccc12 | – | > 99500 nM | 200 ng·h/mL and 464 ng·h/mL | 192 ng·h/mL and 458 ng·h/mL | 496 ng/mL and 718 ng/mL | 42.7 min and 34.1 min | 29.2 min and 40.5 min | 1.42 L/kg and 0.802 L/kg | 41.6 mL/min/kg and 19.6 mL/min/kg | 26.2 min and 25.4 min | – |
| CN(C)C(=O)C[C@]1(C(=O)Nc2cncc3ccccc23)CCOc2ccc(Cl)cc21 (stereo in doubt) | – | 1300 nM | – | – | – | – | – | – | – | – | CC50 (vero): > 9990 nM |
| C=CC(=O)N(C(=O)[C@@H]1CCOc2ccc(Cl)cc21)c1cncc2ccccc12 (stereo in doubt) | > 9990 | – | – | – | – | – | – | – | – | – | CC50 (vero): > 9990 nM |
| COC(=O)N1Cc2ccc(Cl)cc2C(C(=O)Nc2cncc3ccccc23)C1 (configuration not stated) | – | 224 nM | 152 ng·h/mL and 94.2 ng·h/mL | 150 ng·h/mL and 93.6 ng·h/mL | 411 ng/mL and 345 ng/mL | 20.4 min and 24.1 min | 22.5 min and 19.4 min | 1.32 L/kg and 1.82 L/kg | 54.9 mL/min/kg and 88.6 mL/min/kg | 20 min and 18.2 min | – |
| O=C(Nc1cncc2ccccc12)C1CN(S(=O)(=O)C2CC2)Cc2ccc(Cl)cc21 (configuration not stated) | – | 310 nM | – | – | – | – | – | – | – | – | AUC(0-inf) ([2]; mouse): 112 ng·h/mL and 120 ng·h/mL; AUC(0-t) ([2]; mouse): 109 ng·h/mL and 116 ng·h/mL; C0 ([2]; mouse): 314 ng/mL and 396 ng/mL; MRT inf ([2]; mouse): 17.5 min and 18 min; MRT last ([2]; mouse): 16 min and 15.5 min; Vd ([2]; mouse): 1.3 L/kg and 1.25 L/kg; clearance ([2]; mouse): 74.5 mL/min/kg and 69.4 mL/min/kg; half-life ([2]; mouse): 10.7 min and 12.7 min |
| O=C(Cc1cccc(Cl)c1)Nc1cnc2ccccn12 | – | 8030 nM | 285 ng·h/mL and 249 ng·h/mL | 284 ng·h/mL and 247 ng·h/mL | 663 ng/mL and 588 ng/mL | 26.8 min and 26.9 min | 26.4 min and 25.6 min | 0.788 L/kg and 0.895 L/kg | 29.2 mL/min/kg and 33.5 mL/min/kg | 25.6 min and 22.8 min | – |
| O=C(Cc1cccc(Cl)c1)Nc1[nH]nc2cccc(F)c12 | – | > 99500 nM | – | – | – | – | – | – | – | – | – |
| CS(=O)(=O)c1ccc2c(NC(=O)C3CN(CC(=O)NCC4CC4)C(=O)c4ccc(Cl)cc43)cncc2c1 (configuration not stated) | – | 179 nM and 174 nM | – | – | – | – | – | – | – | – | – |
| CN(C)C(=O)COCC1(C(=O)Nc2cncc3ccccc23)CCOc2ccc(Cl)cc21 (configuration not stated) | – | 652 nM | – | – | – | – | – | – | – | – | – |
